Data reported in ChEMBL document CHEMBL1156463, “Survivin down-regulation plays a crucial role in 3-hydroxy-3-methylglutaryl coenzyme A reductase inhibitor-induced apoptosis in cancer” (J Biol Chem, 2007).
pIC50: −log10 of the molar value. Activity calls are given as the source filed them. The calls are words filed in the database; no cut-off is given here.

Key:
SW480 [1] = assay: Decrease in survivin expression in human SW480 cells at 20 uM after 24 hrs by immunoblot analysis; format: functional, cell-based
SW480 [2] = assay: Growth inhibition of human SW480 cells after 96 hrs by MTS assay; format: functional, cell-based; conditions: SW480, 96 h
[3] = Growth inhibition of human LS180 cells after 96 hrs by MTS assay; format: functional, cell-based; conditions: LS180, 96 h
HT-29 = assay: Growth inhibition of human HT29 cells after 96 hrs by MTS assay; format: functional, cell-based; conditions: HT-29, 96 h
SW480 [4] = assay: Reversal of growth inhibition of human SW480 cells at 20 uM after 48 hrs by MTS assay in presence of >50 uM mevalonate; format: functional, cell-based
SW480 [5] = assay: Induction of cell cycle arrest in human SW480 cells by accumulation at G0/G1 phase at 20 uM after 48 hrs by flow cytometry; format: functional, cell-based
SW480 [6] = assay: Induction of cell cycle arrest in human SW480 cells by accumulation at S phase at 20 uM after 48 hrs by flow cytometry; format: functional, cell-based
SW480 [7] = assay: Induction of cell cycle arrest in human SW480 cells by accumulation at G2/M phase at 20 uM after 48 hrs by flow cytometry; format: functional, cell-based
SW480 [8] = assay: Induction of apoptosis in human SW480 cells assessed as increase in hypodiploid DNA content at 20 uM after 48 hrs by flow cytometry relative to control; format: functional
SW480 [9] = assay: Induction of apoptosis in human SW480 cells at 20 uM after 48 hrs by annexin-V propidium iodide staining method; format: functional
SW480 [10] = assay: Decrease in survivin expression in human SW480 cells at 20 uM after 48 hrs by immunoblot analysis; format: functional, cell-based
SW480 [11] = assay: Reversal of reduction in survivin expression in human SW480 cells at 20 uM after 48 hrs by immunoblot analysis in presence of 100 uM mevalonate; format: functional, cell-based
SW480 [12] = assay: Effect on Bax expression in human SW480 cells; format: functional, cell-based
SW480 [13] = assay: Decrease in survivin mRNA expression in human SW480 cells at 20 uM after 48 hrs by RT-PCR technique; format: functional
SW480 [14] = assay: Reversal of reduction in survivin mRNA expression in human SW480 cells at 20 uM after 48 hrs by RT-PCR technique in presence of 100 uM mevalonate; format: functional, cell-based
LS180 [15] = assay: Inhibition of survivin expression in parent human LS180 cells at 20 uM by immunoblot analysis; format: functional, cell-based
LS180 [16] = assay: Inhibition of survivin expression in survivin gene transfected human LS180 cells at 20 uM immunoblot analysis; format: functional, cell-based
LS180 [17] = assay: Blockade of growth inhibition of survivin gene transfected human LS180 cells after 72 hrs by MTS method; format: functional, cell-based
LS180 [18] = assay: Blockade of growth inhibition of human LS180 cells after 72 hrs by MTS method; format: functional, cell-based
SW480 [19] = assay: Reversal of growth inhibition of human SW480 cells at 20 uM after 48 hrs by […] in presence of farnesyl pyrophosphate; format: functional, cell-based
SW480 [20] = assay: Reversal of growth inhibition of human SW480 cells at 20 uM after 48 hrs by […] in presence of geranylgeranyl pyrophosphate; format: functional, cell-based
SW480 [21] = assay: Reversal of growth inhibition of human SW480 cells at 20 uM after 48 hrs by […] in presence of squalene; format: functional, cell-based
SW480 [22] = assay: Decrease in isoprenylated Ras level in human SW480 cells at 20 uM after 48 hrs by immunoblot analysis; format: functional, cell-based
SW480 [23] = assay: Reversal of decrease in isoprenylated Ras level in human SW480 cells at 20 uM after 48 hrs by immunoblot analysis in presence of mevalonate; format: functional, cell-based
SW480 [24] = assay: Reversal of decrease in isoprenylated Ras level in human SW480 cells at 20 uM after 48 hrs by immunoblot analysis in presence of farnesyl pyrophosphate; format: functional, cell-based
SW480 [25] = assay: Reversal of decrease in isoprenylated Ras level in human SW480 cells at 20 uM after 48 hrs by immunoblot analysis in presence of geranylgeranyl pyrophosphate; format: functional, cell-based
SW480 [26] = assay: Reversal of decrease in isoprenylated Ras level in human SW480 cells at 20 uM after 48 hrs by immunoblot analysis in presence of squalene; format: functional, cell-based
SW480 [27] = assay: Inhibition of FBS-stimulated increase in Ras protein expression in human SW480 cells assessed as GTP-bound protein at 20 uM by immunoblot analysis; format: functional, cell-based
SW480 [28] = assay: Reversal of inhibition of FBS-stimulated increase in Ras protein expression in human SW480 cells assessed as GTP-bound protein at 20 uM by immunoblot analysis; format: functional, cell-based
[29] = target: RAC-alpha serine/threonine-protein kinase (Homo sapiens) (UniProt P31749); assay: Inhibition of FBS-stimulated increase in Akt phosphorylation in human SW480 cells at 20 uM by immunoblot analysis; format: cell-based
Sequence of RAC-alpha serine/threonine-protein kinase (Homo sapiens) (P31749 whole entry): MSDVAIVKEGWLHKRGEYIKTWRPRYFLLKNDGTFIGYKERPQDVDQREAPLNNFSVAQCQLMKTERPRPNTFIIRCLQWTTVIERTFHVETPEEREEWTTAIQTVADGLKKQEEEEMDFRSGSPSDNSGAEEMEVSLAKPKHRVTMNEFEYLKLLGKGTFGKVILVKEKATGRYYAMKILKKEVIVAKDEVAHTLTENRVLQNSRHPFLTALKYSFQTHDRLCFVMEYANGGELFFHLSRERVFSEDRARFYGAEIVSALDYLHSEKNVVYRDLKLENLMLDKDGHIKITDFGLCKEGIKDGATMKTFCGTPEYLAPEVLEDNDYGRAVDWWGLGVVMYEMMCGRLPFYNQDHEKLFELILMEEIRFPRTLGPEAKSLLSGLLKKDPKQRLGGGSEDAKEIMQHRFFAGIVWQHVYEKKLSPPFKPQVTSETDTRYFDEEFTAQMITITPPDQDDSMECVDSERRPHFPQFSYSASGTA

**Q.** Which Activity (SW480 [1]) does the source give for O=c1cc(N2CCOCC2)oc2c(-c3ccccc3)cccc12 here?
**A.** Active

**Q.** With CC[C@H](C)C(=O)O[C@H]1C[C@@H](C)C=C2C=C[C@H](C)[C@H](CC[C@@H]3C[C@@H](O)CC(=O)O3)[C@H]21 [LOVASTATIN] as the compound, how does the pIC50 (SW480 [2]) read?
**A.** 5.15

**Q.** What about the pIC50 [3] of the same compound?
**A.** 4.60

**Q.** And the pIC50 (HT-29)?
**A.** 4.33

**Q.** And the Activity (SW480 [4])?
**A.** Active

**Q.** What about the Activity (SW480 [5]) of the same compound?
**A.** inactive

**Q.** And the Activity (SW480 [6])?
**A.** inactive

**Q.** And the Activity (SW480 [7])?
**A.** inactive

**Q.** What about the Activity (SW480 [8]) of the same compound?
**A.** 20.7%

**Q.** What about the Activity (SW480 [9]) of the same compound?
**A.** 24.2%

**Q.** What about the Activity (SW480 [10]) of the same compound?
**A.** Active

**Q.** And the Activity (SW480 [11])?
**A.** Active

**Q.** What about the Activity (SW480 [12]) of the same compound?
**A.** inactive

**Q.** What about the Activity (SW480 [13]) of the same compound?
**A.** 60%

**Q.** And the Activity (SW480 [14])?
**A.** Active

**Q.** And the Activity (LS180 [15])?
**A.** Active

**Q.** And the Activity (LS180 [16])?
**A.** Active

**Q.** And the Activity (LS180 [17])?
**A.** Dose-dependent effect

**Q.** And the Activity (LS180 [18])?
**A.** Active

**Q.** What about the Activity (SW480 [19]) of the same compound?
**A.** Active

**Q.** What about the Activity (SW480 [20]) of the same compound?
**A.** Active

**Q.** And the Activity (SW480 [21])?
**A.** inactive

**Q.** What about the Activity (SW480 [22]) of the same compound?
**A.** Active

**Q.** What about the Activity (SW480 [23]) of the same compound?
**A.** Active

**Q.** What about the Activity (SW480 [24]) of the same compound?
**A.** Active

**Q.** And the Activity (SW480 [25])?
**A.** Active

**Q.** And the Activity (SW480 [26])?
**A.** inactive

**Q.** And the Activity (SW480 [27])?
**A.** Active

**Q.** What about the Activity (SW480 [28]) of the same compound?
**A.** Active

**Q.** What about the Activity [29] of the same compound?
**A.** Active
